The values that follow come from ChEMBL document CHEMBL3763050, “Fragment-Based Discovery of 2-Aminoquinazolin-4(3H)-ones As Novel Class Nonpeptidomimetic Inhibitors of the Plasmepsins I, II, and IV” (J Med Chem, 2016).

One assay concerns the target Plasmepsin I (Plasmodium falciparum, UniProt P39898). Description: Inhibition of Plasmodium falciparum plasmepsin 1 preincubated for 30 mins followed by DABCYL-Glu-Arg-Nle-Phe-Leu-Ser-Phe-Pro-EDANS substrate addition by FRET assay.
Assay [1] in a line: Inhibition of Plasmodium falciparum plasmepsin 4 preincubated for 30 mins followed by DABCYL-Glu-Arg-Nle-Phe-Leu-Ser-Phe-Pro-EDANS substrate addition by FRET assay.
The target of another assay is Plasmepsin II (Plasmodium falciparum, UniProt P46925). In words: Inhibition of Plasmodium falciparum plasmepsin 2 preincubated for 30 mins followed by DABCYL-Glu-Arg-Nle-Phe-Leu-Ser-Phe-Pro-EDANS substrate addition by FRET assay.
The target in the next assay is Cathepsin D (Homo sapiens, UniProt P07339). Description: Inhibition of CatD (unknown origin) preincubated for 30 mins followed by DABCYL-Glu-Arg-Nle-Phe-Leu-Ser-Phe-Pro-EDANS substrate addition by FRET assay.
A further assay deals with Plasmodium falciparum. In words: Antimalarial activity against Plasmodium falciparum 3D7 after 96 hrs by SYBR Green 1 assay. Type of assay: functional, organism-based. The following applies: 3D7, 96 h.

Sequence of Cathepsin D (P07339 65-162 limits assumed): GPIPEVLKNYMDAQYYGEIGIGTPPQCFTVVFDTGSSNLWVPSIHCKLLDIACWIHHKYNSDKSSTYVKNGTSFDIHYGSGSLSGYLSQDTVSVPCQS
Sequence of Cathepsin D (P07339 169-412 limits assumed): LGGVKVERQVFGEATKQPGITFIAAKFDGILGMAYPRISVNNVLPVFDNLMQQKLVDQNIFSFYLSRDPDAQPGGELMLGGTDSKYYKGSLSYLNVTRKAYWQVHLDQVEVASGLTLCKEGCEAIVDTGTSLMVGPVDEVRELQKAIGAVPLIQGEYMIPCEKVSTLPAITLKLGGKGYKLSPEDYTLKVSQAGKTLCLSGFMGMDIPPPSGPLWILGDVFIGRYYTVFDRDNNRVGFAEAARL
Sequence of Plasmepsin I (P39898 whole entry): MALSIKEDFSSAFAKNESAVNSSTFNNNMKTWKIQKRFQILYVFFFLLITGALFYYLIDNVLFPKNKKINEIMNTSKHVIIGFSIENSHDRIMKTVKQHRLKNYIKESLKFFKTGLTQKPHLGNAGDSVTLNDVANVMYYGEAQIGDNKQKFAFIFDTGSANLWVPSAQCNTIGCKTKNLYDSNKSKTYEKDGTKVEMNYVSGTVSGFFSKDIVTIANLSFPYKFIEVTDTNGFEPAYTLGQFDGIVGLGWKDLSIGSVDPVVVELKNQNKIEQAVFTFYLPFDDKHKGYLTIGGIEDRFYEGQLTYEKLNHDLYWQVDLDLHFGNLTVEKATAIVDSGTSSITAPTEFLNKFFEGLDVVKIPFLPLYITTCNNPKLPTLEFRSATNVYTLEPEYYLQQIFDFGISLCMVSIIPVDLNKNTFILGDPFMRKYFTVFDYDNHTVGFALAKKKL
Sequence of Plasmepsin II (P46925 whole entry): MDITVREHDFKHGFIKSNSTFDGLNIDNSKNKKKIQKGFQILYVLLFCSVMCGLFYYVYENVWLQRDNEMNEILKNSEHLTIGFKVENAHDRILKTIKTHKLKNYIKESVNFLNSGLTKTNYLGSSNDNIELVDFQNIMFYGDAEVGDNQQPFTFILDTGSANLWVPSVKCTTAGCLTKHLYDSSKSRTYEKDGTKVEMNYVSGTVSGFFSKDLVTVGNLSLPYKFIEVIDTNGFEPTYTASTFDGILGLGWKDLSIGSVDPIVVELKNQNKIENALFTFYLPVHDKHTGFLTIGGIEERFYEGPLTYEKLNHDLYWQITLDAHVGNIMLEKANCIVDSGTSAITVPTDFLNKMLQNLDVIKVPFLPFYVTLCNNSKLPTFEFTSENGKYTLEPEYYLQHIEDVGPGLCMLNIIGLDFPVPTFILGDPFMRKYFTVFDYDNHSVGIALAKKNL

By IC50 is commonly meant the concentration that inhibits the measured activity by half. As usually defined, the EC50 is the concentration giving half of the maximal effect. Read a high EC50 as a need for much substance. As to `CCCCCc1ccc(-c2ccc3c(=O)n(C[C@@H]4CC[C@H](c5ccccc5)O4)c(N)nc3c2)cc1` (racemic), the IC50 against Plasmepsin I turned out to be 300 nM; in assay [1] it was 100 nM; on Plasmepsin II it was 150 nM; at Cathepsin D, 5000 nM. The response in the assay on Plasmodium falciparum was half-maximal at 1100 nM (EC50).
As to `CC(C)CCc1ccc(-c2ccc3c(=O)n(C[C@@H]4CC[C@H](c5ccccc5)O4)c(N)nc3c2)cc1` (racemic), the IC50 is 1400 nM at Plasmepsin I, 400 nM in assay [1], 600 nM on Plasmepsin II and above 100000 nM against Cathepsin D.
In the case of `Nc1nc2cc(-c3ccccc3)ccc2c(=O)n1C[C@@H]1CCCO1` (racemic), the IC50 against Plasmepsin I is 6000 nM; in assay [1], 1300 nM; on Plasmepsin II, 2300 nM; on Cathepsin D, 53400 nM.
For `Nc1nc2cc(-c3ccccc3)ccc2c(=O)n1CC1CC(c2ccccc2)CO1` (mixture of isomers), the IC50 against Plasmepsin I is 52000 nM; in assay [1], 20000 nM; at Plasmepsin II, 12500 nM; against Cathepsin D, above 200000 nM.
For `Nc1nc2cc(-c3ccccc3)ccc2c(=O)n1C[C@@H]1CC[C@H](c2ccccc2)O1`, the IC50 was determined as 4600 nM on Plasmepsin I, 2700 nM in assay [1], 3000 nM against Plasmepsin II and 22000 nM on Cathepsin D.
On to `Nc1nc2cc(-c3ccccc3)ccc2c(=O)n1CC1CCC2(CCCCC2)O1` (racemic), for which the IC50 on Plasmepsin I came to 2000 nM; in assay [1] it was 3000 nM; on Plasmepsin II it was 5300 nM; on Cathepsin D it was 9000 nM.
As for `Nc1nc2cc(-c3ccc(C4CCCCC4)cc3)ccc2c(=O)n1C[C@@H]1CC[C@H](c2ccccc2)O1` (racemic), the IC50 against Plasmepsin I was 500 nM; in assay [1] it was 800 nM; against Plasmepsin II, 2400 nM; on Cathepsin D, 8600 nM.
`Nc1nc2cc(-c3ccc(CCc4ccccc4)cc3)ccc2c(=O)n1C[C@@H]1CC[C@H](c2ccccc2)O1` (racemic): the IC50 against Plasmepsin I was 2000 nM; in assay [1], 700 nM; against Plasmepsin II, 2000 nM; on Cathepsin D, 220000 nM.
Consider `Nc1nc2cc(-c3ccccc3)ccc2c(=O)n1C[C@@H]1CC[C@H](c2ccc3ccccc3c2)O1` (racemic), for which the IC50 at Plasmepsin I came to 3700 nM; in assay [1], 1300 nM; against Plasmepsin II, 2500 nM; on Cathepsin D it was 19500 nM.
The matching figures for `Nc1nc2cc(-c3ccc(CCC4CC4)cc3)ccc2c(=O)n1C[C@@H]1CC[C@H](c2ccccc2)O1` (racemic): 480 nM, 300 nM, 400 nM and 3200 nM.
Regarding `CCCCc1ccc(-c2ccc3c(=O)n(C[C@@H]4CC[C@H](c5ccccc5)O4)c(N)nc3c2)cc1` (racemic), the IC50 is 300 nM on Plasmepsin I, 200 nM in assay [1], 230 nM on Plasmepsin II and 2200 nM against Cathepsin D. Moreover, in the assay on Plasmodium falciparum, the EC50 came out at 900 nM.
The matching figures for `Nc1nc2cc(-c3ccc(CCCCc4ccccc4)cc3)ccc2c(=O)n1C[C@@H]1CC[C@H](c2ccccc2)O1` (racemic): 6500 nM, 400 nM, 32000 nM, 91000 nM and 3900 nM.
The matching figures for `Nc1nc2cc(-c3ccc(CCCc4ccccc4)cc3)ccc2c(=O)n1C[C@@H]1CC[C@H](c2ccccc2)O1` (racemic): 3200 nM, 130 nM, 10000 nM, 6000 nM and 1200 nM.
As to `Nc1nc2cc(-c3ccccc3)ccc2c(=O)n1C[C@@H]1CC[C@H](c2ccccc2)O1` (racemic), the IC50 came out at 1300 nM on Plasmepsin I, 600 nM in assay [1], 570 nM on Plasmepsin II and 13800 nM at Cathepsin D.
For `COC(=O)CCc1ccc(-c2ccc3c(=O)n(C[C@@H]4CC[C@H](c5ccccc5)O4)c(N)nc3c2)cc1` (racemic), the IC50 at Plasmepsin I is 270 nM; in assay [1], 400 nM; at Plasmepsin II, 2600 nM; at Cathepsin D, 1400 nM.
Take `Nc1nc2cc(-c3ccccc3)ccc2c(=O)n1C[C@H]1CC[C@@H](c2ccccc2)O1`: the IC50 against Plasmepsin I was 1200 nM; in assay [1], 500 nM; against Plasmepsin II, 340 nM; against Cathepsin D, 4600 nM.
For the compound `Nc1nc2cc(-c3ccc(CCCCCc4ccccc4)cc3)ccc2c(=O)n1C[C@@H]1CC[C@H](c2ccccc2)O1` (racemic), the IC50 is 36000 nM at Plasmepsin I, 2000 nM in assay [1], 12000 nM at Plasmepsin II and 52000 nM on Cathepsin D.
In the case of `Nc1nc2cc(-c3ccc(CCC4CCCCC4)cc3)ccc2c(=O)n1C[C@@H]1CC[C@H](c2ccccc2)O1` (racemic), the IC50 came to 9400 nM on Plasmepsin I, 1200 nM in assay [1], 10700 nM against Plasmepsin II and 100000 nM against Cathepsin D.
The matching figures for `CCCCc1cccc(-c2ccc3c(=O)n(C[C@@H]4CC[C@H](c5ccccc5)O4)c(N)nc3c2)c1` (racemic): 800 nM, 1000 nM, 2000 nM and 3000 nM.
On to `CC(C)[C@H]1CC[C@@H](Cn2c(N)nc3cc(-c4ccccc4)ccc3c2=O)O1` (racemic), for which the IC50 came to 2300 nM at Plasmepsin I, 1500 nM in assay [1], 1600 nM on Plasmepsin II and 25000 nM at Cathepsin D.
As to `Nc1nc2cc(-c3ccccc3)ccc2c(=O)n1C[C@@H]1CC[C@@H](c2ccccc2)O1` (racemic), the IC50 turned out to be 2400 nM at Plasmepsin I, 1100 nM in assay [1], 2900 nM against Plasmepsin II and 9000 nM at Cathepsin D.
